Where a SMILES comes first, the peptide text is derived from it. Bridges are numbered along the chain shown (N, C = ends). Where no end group is shown, it is not given here. Side-chain parts run from the residue outwards. [ ]: non-standard residue; d: D form. The star is where a group is joined. Desaminohistidyl = O=C(CCc1c[nH]cn1)*; PLA = phenyl lactic acid; Aib = CC(C)(N)C(=O)O
What was measured:
blood glucose [1] = test: Glucose challenge in DIO mice after intraperitoneal peptide injection (Examples 5-7); type: in vivo; conditions: 2 nmol/kg
Method: Six groups of diabetes-induced obesity (DIO) mice (eight mice per group) having an initial average body weight of 49.5 g were intraperitoneally injected with 2 nmol/kg of a PBS vehicle control or one of Peptides A-E described below:
(§1) Fifteen minutes after injection with one of the compounds or with vehicle control (at time point 0), a 25% (w/v) glucose saline solution was injected at a dose of 1.5 g per kg of body weight. Blood glucose concentrations of the mice were measured at the time of injection of the compound or vehicle control, at the time of glucose injection, and at 15, 30, 60, and 120 minutes after glucose injection.
Blood glucose levels of the mice were measured as described in Example 5.

GLP-1 receptor = biological target: T1, GLP-1 receptor (Homo sapiens, UniProt P43220); test: Luciferase-based reporter gene assay for cAMP detection, GLP-1 receptor; type: cell-based
T1 construct: expressed in transfected cells; host or cells: HEK293
T1 sequence (P43220 24-463, species assumed): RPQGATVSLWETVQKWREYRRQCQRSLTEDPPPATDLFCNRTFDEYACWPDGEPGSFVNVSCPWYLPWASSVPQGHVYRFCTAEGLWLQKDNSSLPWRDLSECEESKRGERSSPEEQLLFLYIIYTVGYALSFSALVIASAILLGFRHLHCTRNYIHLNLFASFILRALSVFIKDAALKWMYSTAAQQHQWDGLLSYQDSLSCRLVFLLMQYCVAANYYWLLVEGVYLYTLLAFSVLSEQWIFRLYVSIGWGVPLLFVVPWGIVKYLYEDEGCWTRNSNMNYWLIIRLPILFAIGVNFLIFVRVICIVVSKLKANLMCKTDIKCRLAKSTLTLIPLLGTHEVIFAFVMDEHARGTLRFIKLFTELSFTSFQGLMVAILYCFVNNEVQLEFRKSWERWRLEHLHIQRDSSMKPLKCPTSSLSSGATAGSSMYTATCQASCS

blood glucose [2] = test: Glucose challenge in DIO mice after pegylated peptide injection (Example 8); type: in vivo; conditions: 15 or 70 nmol/kg, glucose injected sixty minutes after peptide
Method: (§2) Nine groups of diabetes-induced obesity (DIO) mice (8 mice per group) having an initial average body weight of 56 g were intraperitoneally injected once and followed for one week with 15 or 70 nmol/kg of Peptides Y, Z, F-Peg, and G-Peg described below or PBS vehicle control.
as §1, with “Sixty” for “Fifteen”, “peptides” for “compounds”, “peptide” for “compound”, “control (at time point −60),” for “control,”, “injection (at time point 0),” for “injection,”

[3] = Body weight and food intake of DIO mice over one week (Example 8); type: in vivo; conditions: 15 or 70 nmol/kg; for total food intake: seven days after injection
Method: as §2
The body weight of each mouse of each group was measured on 1, 3, 5, and 7 days after injection with the vehicle control or peptide. Total change in body weight was calculated by subtracting the average body weight of a group at the time of injection with vehicle or peptide from the average body weight of the group seven days after injection. Food intake by each group of mice was measured during the course of the week as well. Total food intake was measured seven days after injection with vehicle control or peptide. […] The Ser11 substitution or the des-amino His7 reduces total efficacy.

[4] = Cleavage of dipeptide-extended prodrugs on incubation in PBS (HPLC/MS); type: physicochemical
Method: Preliminary analyses were performed with these crude peptides to get an approximation of their relative conversion rates in Phosphate Buffered Saline (PBS) buffer (pH, 7.2) using high performance liquid chromatography (HPLC) and MALDI analysis. The crude peptide samples were dissolved in the PBS buffer at a concentration of 1 mg/ml. 1 ml of the resulting solution was stored in a 1.5 ml HPLC vial which was then sealed and incubated at 37° C. Aliquots of 100 μl were drawn out at various time intervals, cooled to room temperature and analyzed by HPLC.
HPLC analyses were performed on a 150 mm×4.6 mm C18 Vydac column. The flow rate was 1 ml/min. […] A linear gradient was employed (40% to 70% B in 15 minutes).
Each N-terminally extended peptide was incubated in PBS buffer at 37° C. for approximately a week. Alternatively, each peptide was heated for 120 min at 100° C. to accelerate the amide bond cleavage. Cleavage of the prodrugs was analyzed by reverse phase HPLC and MS.
To explore the possible formation of 2,5-diketopiperazine (DKP) or 2,5-diketomorpholine (DMP) and the simultaneous generation of HO-F^7,GLP(8-36)-CEX, the prodrug was incubated in PBS buffer at 37° C. for approximately a week. The peptide was also heated at 100° C. to determine the susceptibility to cleavage (Table 4).

| Compound | blood glucose of prodrug form versus corresponding non-prodrug form (blood glucose [1]) | blood glucose concentrations versus vehicle control (blood glucose [2]) | total food intake [3] | other results |
| --- | --- | --- | --- | --- |
| Peptide E: prodrug of Peptide D, d-Phe-d-Val ester on Ser at position 11; SEQ ID NO: 649 (H[Aib]EGS([dV-dF])FTSDVSSYLEEQAAKEFIAWLVKGRPSSGAPPPS-NH2; N-terminus assumed; SMILES CC[C@H](C)[C@H](NC(=O)[C@H](Cc1ccccc1)NC(=O)[C@H](CCC(=O)O)NC(=O)[C@H](CCCCN)NC(=O)[C@H](C)NC(=O)[C@H](C)NC(=O)[C@H](CCC(N)=O)NC(=O)[C@H](CCC(=O)O)NC(=O)[C@H](CCC(=O)O)NC(=O)[C@H](CC(C)C)NC(=O)[C@H](Cc1ccc(O)cc1)NC(=O)[C@H](CO)NC(=O)[C@H](CO)NC(=O)[C@@H](NC(=O)[C@H](CC(=O)O)NC(=O)[C@H](CO)NC(=O)[C@@H](NC(=O)[C@H](Cc1ccccc1)NC(=O)[C@H](COC(=O)[C@H](NC(=O)[C@H](N)Cc1ccccc1)C(C)C)NC(=O)CNC(=O)[C@H](CCC(=O)O)NC(=O)C(C)(C)NC(=O)[C@@H](N)Cc1c[nH]cn1)[C@@H](C)O)C(C)C)C(=O)N[C@@H](C)C(=O)N[C@@H](Cc1c[nH]c2ccccc12)C(=O)N[C@@H](CC(C)C)C(=O)N[C@H](C(=O)N[C@@H](CCCCN)C(=O)NCC(=O)N[C@@H](CCCNC(=N)N)C(=O)N1CCC[C@H]1C(=O)N[C@@H](CO)C(=O)N[C@@H](CO)C(=O)NCC(=O)N[C@@H](C)C(=O)N1CCC[C@H]1C(=O)N1CCC[C@H]1C(=O)N1CCC[C@H]1C(=O)N[C@@H](CO)C(N)=O)C(C)C) | higher than the blood glucose levels of mice injected with the corresponding non-prodrug forms of the peptides | – | – | – |
| HAEGTFTSDVSSYLEGQAAKEFIAWLVKGRGKRNRNNIA (listed as Homo sapiens) [GLP-oxyntomodulin] | – | – | – | potency relative to native GLP-1 (GLP-1 receptor): at least as potent as the native GLP-1 peptide |
| Peptide Z: pegylated prodrug, d-Phe-d-Val ester on Ser at position 11; SEQ ID NO: 654 (H[Aib]EGS([dV-dF])FTSDVSSYLEEQAAKEFIC(PEG 40 kDa)WLVKGRPSSGAPPPS-NH2) | – | less as compared to the blood glucose levels of mice injected with vehicle control | decreased | – |
| CC[C@H](C)[C@H](NC(=O)[C@H](Cc1ccccc1)NC(=O)[C@H](CCC(=O)O)NC(=O)[C@H](CCCCN)NC(=O)[C@H](C)NC(=O)[C@H](C)NC(=O)[C@H](CCC(N)=O)NC(=O)CNC(=O)[C@H](CCC(=O)O)NC(=O)[C@H](CC(C)C)NC(=O)[C@H](Cc1ccc(O)cc1)NC(=O)[C@H](CO)NC(=O)[C@H](CO)NC(=O)[C@@H](NC(=O)[C@H](CC(=O)O)NC(=O)[C@H](CO)NC(=O)[C@@H](NC(=O)[C@H](Cc1ccccc1)NC(=O)[C@H](COC(=O)CNC(=O)CN)NC(=O)CNC(=O)[C@H](CCC(N)=O)NC(=O)[C@H](C)NC(=O)[C@@H](N)Cc1ccccc1)[C@@H](C)O)C(C)C)C(=O)N[C@@H](C)C(=O)N[C@@H](Cc1c[nH]c2ccccc12)C(=O)N[C@@H](CC(C)C)C(=O)N[C@H](C(=O)N[C@@H](CCCCN)C(=O)NCC(=O)NCC(=O)N1CCC[C@H]1C(=O)N[C@@H](CO)C(=O)N[C@@H](CO)C(=O)NCC(=O)N[C@@H](C)C(=O)N1CCC[C@H]1C(=O)N1CCC[C@H]1C(=O)N1CCC[C@H]1C(=O)N[C@@H](CO)C(N)=O)C(C)C (H-FAQGS([Gly-Gly])FTSDVSSYLEGQAAKEFIAWLVKGGPSSGAPPPS-NH2; N-terminus and C-terminus assumed) | – | – | – | half-life ([4]; buffer, PBS pH 7.2, 37° C.): 2.7 h; prodrug converted to the active entity ([4]; in 5 hours, worked out from the half life ([…])): approximately 70% |
| Peptide Y: GLP-1-based peptide with Cys at 30 linked to a 40 kDa PEG; SEQ ID NO: 653 (H[Aib]EGTFTSDVSSYLEEQAAKEFIC(PEG 40 kDa)WLVKGRPSSGAPPPS-NH2) | – | less as compared to the blood glucose levels of mice injected with vehicle control | decreased | potency in decreasing appetite and decreasing body weight ([3]; one week): most potent of the four peptides in decreasing appetite and decreasing body weight |
| Peptide G: prodrug of Peptide F, d-Phe-dVal ester on Ser at position 2 of Peptide F; SEQ ID NO: 651 ([Desaminohistidyl]S([dV-dF])EGTFTSDVSSYLEEQAAKEFIAWLVKGRPSSGAPPPS-NH2; SMILES CC[C@H](C)[C@H](NC(=O)[C@H](Cc1ccccc1)NC(=O)[C@H](CCC(=O)O)NC(=O)[C@H](CCCCN)NC(=O)[C@H](C)NC(=O)[C@H](C)NC(=O)[C@H](CCC(N)=O)NC(=O)[C@H](CCC(=O)O)NC(=O)[C@H](CCC(=O)O)NC(=O)[C@H](CC(C)C)NC(=O)[C@H](Cc1ccc(O)cc1)NC(=O)[C@H](CO)NC(=O)[C@H](CO)NC(=O)[C@@H](NC(=O)[C@H](CC(=O)O)NC(=O)[C@H](CO)NC(=O)[C@@H](NC(=O)[C@H](Cc1ccccc1)NC(=O)[C@@H](NC(=O)CNC(=O)[C@H](CCC(=O)O)NC(=O)[C@H](COC(=O)[C@H](NC(=O)[C@H](N)Cc1ccccc1)C(C)C)NC(=O)CCc1c[nH]cn1)[C@@H](C)O)[C@@H](C)O)C(C)C)C(=O)N[C@@H](C)C(=O)N[C@@H](Cc1c[nH]c2ccccc12)C(=O)N[C@@H](CC(C)C)C(=O)N[C@H](C(=O)N[C@@H](CCCCN)C(=O)NCC(=O)N[C@@H](CCCNC(=N)N)C(=O)N1CCC[C@H]1C(=O)N[C@@H](CO)C(=O)N[C@@H](CO)C(=O)NCC(=O)N[C@@H](C)C(=O)N1CCC[C@H]1C(=O)N1CCC[C@H]1C(=O)N1CCC[C@H]1C(=O)N[C@@H](CO)C(N)=O)C(C)C) | higher than the blood glucose levels of mice injected with its corresponding non-prodrug form | – | – | – |
| Peptide C: prodrug of Peptide B, d-Phe-d-Val attached via the O-terminus; SEQ ID NO: 647 ({dF-dV-PLA}-[Aib]EGTFTSDVSSYLEEQAAKEFIAWLVKGRPSSGAPPPS-NH2; also: dV-PLA joined by ester bond) | higher than the blood glucose levels of mice injected with the corresponding non-prodrug forms of the peptides | – | – | – |
| Peptide A: prodrug of Peptide B, d-Phe-dPhe attached via the O-terminus; SEQ ID NO: 645 ({dF-dF-PLA}-[Aib]EGTFTSDVSSYLEEQAAKEFIAWLVKGRPSSGAPPPS-NH2; also: dF-PLA joined by ester bond) | higher than the blood glucose levels of mice injected with the corresponding non-prodrug forms of the peptides | – | – | – |
| 2 (FTSEYSKYLDERRAQDFVQWLMNTGPSSGAPPPS; lactam 7-11) [Peptide 2] | – | – | – | t1/2 ([4]; buffer): HO-Phe-dVal (t1/2 = 50.5 hrs) |
| F^7,GLP(8-37): aa 7-37 of GLP-1 with the His at position 7 replaced with Phe (FAEGTFTSDVSSYLEGQAAKEFIAWLVKGRG; Glucagon-like peptide 1(7-37); UniProt P01275 98-128, looked up, variant H7F) | – | – | – | potency of native GLP-1 (GLP-1 receptor; relative to native GLP): 10% |
| Peptide F-Peg: Peptide F sequence with Cys at 30 linked to a 40 kDa PEG; SEQ ID NO: 655 ([Desaminohistidyl]SEGTFTSDVSSYLEEQAAKEFIC(PEG 40 kDa)WLVKGRPSSGAPPPS-NH2) | – | less as compared to the blood glucose levels of mice injected with vehicle control | decreased | total efficacy over a week study [3]: comparable |
| Peptide G-Peg: pegylated prodrug, d-Phe-d-Val ester on Ser at position 8; SEQ ID NO: 656 ([Desaminohistidyl]S([dV-dF])EGTFTSDVSSYLEEQAAKEFIC(PEG 40 kDa)WLVKGRPSSGAPPPS-NH2) | – | less as compared to the blood glucose levels of mice injected with vehicle control | decreased | total efficacy over a week study [3]: comparable |
| H^7AEGTFTSDVSSYLEGQAAKEFIAWLVKGXPSSGAPPPS-amide [GLP(7-36)-CEX amide] | – | – | – | potency relative to native GLP-1 (GLP-1 receptor): approximately ten times more potent in vitro than the native GLP-1 sequence |

From patent publication US9089539B2 (Indiana University Research and Technology Corporation, priority 2008, dated 2015)
